# Experimental data published in ChEMBL document CHEMBL1145967, “Design, synthesis, and biological activities of classical N-[4-[2-(2-amino-4-ethylpyrrolo[2,3-d]pyrimidin-5-yl)ethyl]benzoyl]-l-glutamic acid and its 6-methyl derivative as potential dual inhibitors of thymidylate synthase and dihydrofolate reductase and as potential antitumor agents” (J Med Chem, 2003).
# B1: Folylpolyglutamate synthase, mitochondrial (Homo sapiens), Q05932 (protein)
# chain: MSRARSHLRAALFLAAASARGITTQVAARRGLSAWPVPQEPSMEYQDAVRMLNTLQTNAGYLEQVKRQRGDPQTQLEAMELYLARSGLQVEDLDRLNIIHVTGTKGKGSTCAFTECILRSYGLKTGFFSSPHLVQVRERIRINGQPISPELFTKYFWRLYHRLEETKDGSCVSMPPYFRFLTLMAFHVFLQEKVDLAVVEVGIGGAYDCTNIIRKPVVCGVSSLGIDHTSLLGDTVEKIAWQKGGIFKQGVPAFTVLQPEGPLAVLRDRAQQISCPLYLCPMLEALEEGGPPLTLGLEGEHQRSNAALALQLAHCWLQRQDRHGAGEPKASRPGLLWQLPLAPVFQPTSHMRLGLRNTEWPGRTQVLRRGPLTWYLDGAHTASSAQACVRWFRQALQGRERPSGGPEVRVLLFNATGDRDPAALLKLLQPCQFDYAVFCPNLTEVSSTGNADQQNFTVTLDQVLLRCLEHQQHWNHLDEEQASPDLWSAPSPEPGGSASLLLAPHPPHTCSASSLVFSCISHALQWISQGRDPIFQPPSPPKGLLTHPVAHSGASILREAAAIHVLVTGSLHLVGGVLKLLEPALSQ
# How the values were obtained:
# [1] = tested on: R30dm-CCRF-CEM; test: Growth inhibition of MTX-resistant subline R30dm-CCRF-CEM Human Leukemia Cell was determined; assay type: functional, cell-based
# [2] = tested on: R2-CCRF-CEM; test: Growth inhibition of MTX-resistant subline R2-CCRF-CEM Human Leukemia Cell was determined; assay type: functional, cell-based
# [3] = tested on: R1-CCRF-CEM; test: Growth inhibition of MTX-resistant subline R1-CCRF-CEM Human Leukemia Cell was determined; assay type: functional, cell-based
# [4] = tested on: ACHN; test: Cytotoxicity evaluation against ACHN renal cancer cells; assay type: functional; settings: Homo sapiens
# [5] = tested on: NCI-H226; test: Cytotoxicity evaluation against NCI-H226 non-small-cell lung cancer cells; assay type: functional; settings: Homo sapiens
# [6] = tested on: UACC-62; test: Cytotoxicity evaluation against UACC-62 melanoma cells; assay type: functional; settings: Homo sapiens
# [7] = tested on: CCRF-CEM; test: Growth inhibition of CCRF-CEM Human Leukemia Cell was determined; assay type: functional, cell-based
# [8] = tested on: UACC-257; test: Cytotoxicity evaluation against UACC-257 melanoma cells; assay type: functional; settings: Homo sapiens
# [9] = tested on: HT-29; test: Cytotoxicity evaluation against HT-29 colon cancer cells; assay type: functional; settings: Homo sapiens
# [10] = tested on: K562; test: Cytotoxicity evaluation against K-562 Leukemia cells; assay type: functional; settings: Homo sapiens
# [11] = tested on: MOLT-4; test: Cytotoxicity evaluation against MOLT-4 Leukemia cells; assay type: functional; settings: Homo sapiens
# [12] = tested on: NCI-H460; test: Cytotoxicity evaluation against NCI-H460 non-small-cell lung cancer cells; assay type: functional; settings: Homo sapiens
# [13] = tested on: MDA-N; test: Cytotoxicity evaluation against […] breast cancer cells; assay type: functional; settings: Homo sapiens
# [14] = tested on: SN12C; test: Cytotoxicity evaluation against SN12C renal cancer cells; assay type: functional; settings: Homo sapiens
# [15] = tested on: SW-620; test: Cytotoxicity evaluation against SW-620 colon cancer cells; assay type: functional; settings: Homo sapiens
# [16] = tested on: HCT-15; test: Cytotoxicity evaluation against HCT-15 colon cancer cells; assay type: functional; settings: Homo sapiens
# [17] = biological target: Dihydrofolate reductase (Homo sapiens) (UniProt P00374); test: Compound was evaluated as inhibitor of human Dihydrofolate reductase; settings: concentration not given here
# [18] = tested on: MCF7; test: Cytotoxicity evaluation against MCF-7 breast cancer cells; assay type: functional; settings: Homo sapiens
# [19] = biological target: Thymidylate synthase (Homo sapiens, UniProt P04818); test: Compound was evaluated as inhibitor of human thymidylate synthase
# [20] = tested on: HL-60; test: Cytotoxicity evaluation against HL-60 Leukemia cells; assay type: functional; settings: Homo sapiens
# [21] = tested on: LOX IMVI; test: Cytotoxicity evaluation against LOX IMVI melanoma cells; assay type: functional; settings: Homo sapiens
# [22] = tested on: MDA-MB-435; test: Cytotoxicity evaluation against MDA-MB-435 breast cancer cells; assay type: functional; settings: Homo sapiens
# [23] = tested on: A549; test: Cytotoxicity evaluation against A549/ATCC non-small-cell lung cancer cells; assay type: functional; settings: Homo sapiens
# [24] = tested on: SF-539; test: Cytotoxicity evaluation against SF-539 CNS cancer cells; assay type: functional; settings: Homo sapiens
# [25] = biological target: Thymidylate synthase (Lactobacillus casei, UniProt P00469); test: Compound was evaluated as inhibitor of Lactobacillus casei thymidylate synthase; parameters: species or system Lacticaseibacillus casei
# [26] = tested on: OVCAR-4; test: Cytotoxicity evaluation against OVCAR-4 cells; assay type: functional; settings: Homo sapiens
# [27] = biological target: Thymidylate synthase (Escherichia coli, UniProt C3SWJ7); test: Compound was evaluated as inhibitor of Escherichia coli thymidylate synthase
# [28] = biological target: Dihydrofolate reductase (Homo sapiens, UniProt P00374)
# [29] = substrate: CCc1[nH]c(N)nc2ncc(CCc3ccc(C(=O)N[C@@H](CCC(=O)O)C(=O)O)cc3)c1-2; test: (§1) Activity of compound calculated as Km was tested as substrate for human Folyl-polyglutamate synthase
# [30] = substrate: CCc1[nH]c(N)nc2nc(C)c(CCc3ccc(C(=O)N[C@@H](CCC(=O)O)C(=O)O)cc3)c1-2; test: as §1
# [31] = substrate: CCc1[nH]c(N)nc2ncc(CCc3ccc(C(=O)N[C@@H](CCC(=O)O)C(=O)O)cc3)c1-2; test: (§2) Activity of compound calculated as maximum activity of substrate for human Folyl-polyglutamate synthase relative to the maximum activity for aminopterin
# [32] = substrate: Cc1nc(N)nc2[nH]cc(CCc3ccc(C(=O)N[C@@H](CCC(=O)O)C(=O)O)cc3)c12; test: as §2
# [33] = substrate: Nc1nc(N)c2nc(CNc3ccc(C(=O)N[C@@H](CCC(=O)O)C(=O)O)cc3)cnc2n1; test: as §2
# [34] = substrate: CCc1[nH]c(N)nc2nc(C)c(CCc3ccc(C(=O)N[C@@H](CCC(=O)O)C(=O)O)cc3)c1-2; test: as §2
# Sequence of Thymidylate synthase (Homo sapiens, UniProt P04818) (P04818 whole entry): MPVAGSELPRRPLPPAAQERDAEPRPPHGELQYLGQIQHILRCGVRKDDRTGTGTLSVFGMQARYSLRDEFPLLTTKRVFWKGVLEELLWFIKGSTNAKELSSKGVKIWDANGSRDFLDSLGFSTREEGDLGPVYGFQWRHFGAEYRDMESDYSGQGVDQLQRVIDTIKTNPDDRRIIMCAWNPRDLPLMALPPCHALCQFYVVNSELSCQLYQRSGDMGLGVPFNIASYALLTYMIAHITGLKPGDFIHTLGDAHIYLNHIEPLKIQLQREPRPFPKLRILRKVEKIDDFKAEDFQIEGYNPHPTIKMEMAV
# Sequence of Dihydrofolate reductase (Homo sapiens) (P00374 whole entry): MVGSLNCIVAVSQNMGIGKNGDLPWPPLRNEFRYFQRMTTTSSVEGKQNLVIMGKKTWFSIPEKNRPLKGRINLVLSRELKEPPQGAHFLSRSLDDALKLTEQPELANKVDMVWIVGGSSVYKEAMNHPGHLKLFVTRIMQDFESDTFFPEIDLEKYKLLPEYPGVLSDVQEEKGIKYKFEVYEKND
# Sequence of Dihydrofolate reductase (P00374 whole entry): as above
# Sequence of Thymidylate synthase (Escherichia coli, UniProt C3SWJ7) (C3SWJ7 whole entry): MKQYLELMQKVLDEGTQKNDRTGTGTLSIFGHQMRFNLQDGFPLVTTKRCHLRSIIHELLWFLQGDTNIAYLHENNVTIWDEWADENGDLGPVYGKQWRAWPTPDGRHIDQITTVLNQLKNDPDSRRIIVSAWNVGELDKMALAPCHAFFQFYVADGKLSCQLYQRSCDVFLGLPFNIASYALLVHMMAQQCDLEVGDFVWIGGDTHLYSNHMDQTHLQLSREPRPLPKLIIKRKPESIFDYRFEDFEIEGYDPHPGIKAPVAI
# Sequence of Thymidylate synthase (Lactobacillus casei, UniProt P00469) (P00469 whole entry): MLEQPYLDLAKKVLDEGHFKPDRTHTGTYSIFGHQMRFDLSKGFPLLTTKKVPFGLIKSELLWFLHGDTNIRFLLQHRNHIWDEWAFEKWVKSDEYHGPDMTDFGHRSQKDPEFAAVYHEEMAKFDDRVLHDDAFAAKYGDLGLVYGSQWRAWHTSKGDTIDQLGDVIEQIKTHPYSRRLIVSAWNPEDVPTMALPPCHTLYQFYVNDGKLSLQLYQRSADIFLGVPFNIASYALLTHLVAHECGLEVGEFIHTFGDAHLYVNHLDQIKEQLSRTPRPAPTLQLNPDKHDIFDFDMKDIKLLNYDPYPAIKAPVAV
Molecule,EC50 [1] [µM],EC50 [2] [µM],EC50 [3] [µM],GI50 [4] [µM],GI50 [5] [µM],GI50 [6] [µM],EC50 [7] [µM],GI50 [8] [µM],GI50 [9] [µM],GI50 [10] [µM],GI50 [11] [µM],GI50 [12] [µM],GI50 [13] [µM],GI50 [14] [µM],GI50 [15] [µM],GI50 [16] [µM],GI50 [20] [µM],GI50 [21] [µM],GI50 [22] [µM],GI50 [26] [µM],further results
CN(Cc1cnc2nc(N)nc(N)c2n1)c1ccc(C(=O)N[C@@H](CCC(=O)O)C(=O)O)cc1 [METHOTREXATE],0.0128,2.63,0.985,,,,,,,,,,,,,,,,,,
CCc1[nH]c(N)nc2nc(C)c(CCc3ccc(C(=O)N[C@@H](CCC(=O)O)C(=O)O)cc3)c1-2,> 20,> 10,> 20,> 100,> 100,> 100,> 10,> 100,> 100,0.143,0.1,> 100,> 100,> 100,> 100,> 100,< 0.01,98.6,> 100,> 100,inhibition [17]: 14%; GI50 [18]: > 100 µM; IC50 [19]: 9 µM; GI50 [23]: > 100 µM; GI50 [24]: > 100 µM; IC50 [25]: > 100 µM
CCc1nc(N)nc2[nH]cc(CCc3ccc(C(=O)N[C@@H](CCC(=O)O)C(=O)O)cc3)c12,0.0185,0.75,0.695,0.169,< 0.01,< 0.01,0.015,< 0.01,< 0.01,< 0.01,> 100,< 0.01,< 0.01,< 0.01,< 0.01,< 0.01,< 0.01,< 0.01,< 0.01,< 0.01,GI50 [18]: < 0.01 µM; IC50 [19]: 80 µM; IC50 [27]: 80 µM; GI50 [23]: < 0.01 µM; GI50 [24]: < 0.01 µM
Cc1nc(N)nc2[nH]cc(CCc3ccc(C(=O)N[C@@H](CCC(=O)O)C(=O)O)cc3)c12,0.0185,0.575,0.158,,,> 100,,> 100,> 100,14.7,,,> 100,> 100,> 100,> 100,< 0.01,11.5,> 100,> 100,IC50 [28]: 1.2 µM
B1,,,,,,,,,,,,,,,,,,,,,Km [29]: < 2 µM; Km [30]: 96 µM; relative Vmax [31]: 0.23; relative Vmax [32]: 0.17; Vmax [33]: 1 µM; relative Vmax [34]: 0.1
